{
  "source": "patent US20060194259A1",
  "about": "“Method for isolating an allosteric effector of a receptor” (priority 2002, published 2006)",
  "key": {"[1]": {"test_system": "cells not expressing the EGFP-NK2R receptor", "test": "Calcium response on cells not expressing the receptor", "type": "cell-based", "design": "key: ns: not significant; ?: uniterpretable"}, "receptor EGFP-NK2R [2]": {"target": "T1, receptor EGFP-NK2R (Homo sapiens, UniProt P21452)", "T1 sequence (P21452 1-398)": "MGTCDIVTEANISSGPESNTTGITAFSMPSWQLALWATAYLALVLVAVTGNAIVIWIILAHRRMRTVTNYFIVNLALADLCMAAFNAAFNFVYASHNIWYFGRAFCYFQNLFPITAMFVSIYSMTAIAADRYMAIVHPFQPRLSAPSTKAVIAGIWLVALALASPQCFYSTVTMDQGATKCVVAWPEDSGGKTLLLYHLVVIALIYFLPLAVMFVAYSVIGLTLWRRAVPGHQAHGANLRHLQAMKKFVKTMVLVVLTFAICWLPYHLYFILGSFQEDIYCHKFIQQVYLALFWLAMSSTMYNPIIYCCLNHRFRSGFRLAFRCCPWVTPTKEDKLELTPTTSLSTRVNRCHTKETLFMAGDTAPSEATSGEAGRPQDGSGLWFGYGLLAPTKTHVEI", "test": "Calcium response caused by NKA 4-10 TR7 in HEK 293 cells expressing EGFP-NK2R (indo-1)", "type": "cell-based", "details": "805 20 μM; NKA 4-10 TR7 106, 50.3, 26.5 and 10.6 nM", "experimental": "The cells are put into suspension at a rate of 500,000 cells/ml in Hepes buffer and arranged in a spectrofluorimeter cuvette. The excitation wavelength is fixed at 355 nm and the emission is recorded at […]."}, "receptor EGFP-NK2R [3]": {"target": "T2, receptor EGFP-NK2R (UniProt P16610)", "T2 sequence (P16610 1-390)": "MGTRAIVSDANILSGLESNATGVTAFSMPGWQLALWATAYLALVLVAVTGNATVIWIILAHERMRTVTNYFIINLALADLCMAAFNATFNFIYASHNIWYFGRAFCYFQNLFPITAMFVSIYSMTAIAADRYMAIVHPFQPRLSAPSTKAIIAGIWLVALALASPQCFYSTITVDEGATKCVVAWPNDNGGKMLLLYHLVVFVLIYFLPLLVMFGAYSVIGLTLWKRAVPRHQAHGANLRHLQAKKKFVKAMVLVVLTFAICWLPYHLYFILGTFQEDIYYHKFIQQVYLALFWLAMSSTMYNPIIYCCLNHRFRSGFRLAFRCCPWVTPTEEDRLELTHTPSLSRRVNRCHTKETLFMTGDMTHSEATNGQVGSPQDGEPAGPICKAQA", "test": "Dissociation kinetics of NKA-Bo bound to EGFP-NK2R by fluorescence energy transfer", "type": "binding", "design": "% al (max): maximum value observed for the increase in amplitude of the rapid dissociation rate; ns = n; other: 20 nM of NK; % al (at 10 μM); other: compou; fused on or other part: EGFP fused to the receptor as FRET donor", "details": "for λ1/λ2 amplitudes (rapid/slow) of dissociation of NKA-Bo: 30/70 without 805", "experimental": "Dissociation (FIG. 4B): HEK 293 cells expressing the receptor EGFP-NK2R are put into suspension at a concentration of 1,000,000 cells/ml in Hepes physiological buffer (in mM: 137.5 NaCl; 1.25 MgCl2; 1.25 CaCl2; 6 KCl; 5.6 glucose; 10 Hepes; 0.4 NaH2PO4; 1% BSA (w/v); pH 7.4) and arranged in a 1 ml cuvette equipped with a magnetic stirrer on the cuvette holder of a SPEX fluorolog 3 spectrofluorimeter.\n(§1) The amplitude of each relaxation is then given by the adjustment of the experimental traces."}, "receptor EGFP-NK2R [4]": {"target": "T1, receptor EGFP-NK2R", "test": "Reversion of the binding of NKA-Bo to EGFP-NK2R by fluorescence energy transfer", "details": "read-out: % bond reversion (50 μM)", "description": "as §1"}, "[5]": {"target": "T3, wild-type human receptor NK1 (Homo sapiens, UniProt P25103)", "T3 construct": "expressed in transfected cells; host or cells: HEK 293", "T3 sequence (P25103 whole entry)": "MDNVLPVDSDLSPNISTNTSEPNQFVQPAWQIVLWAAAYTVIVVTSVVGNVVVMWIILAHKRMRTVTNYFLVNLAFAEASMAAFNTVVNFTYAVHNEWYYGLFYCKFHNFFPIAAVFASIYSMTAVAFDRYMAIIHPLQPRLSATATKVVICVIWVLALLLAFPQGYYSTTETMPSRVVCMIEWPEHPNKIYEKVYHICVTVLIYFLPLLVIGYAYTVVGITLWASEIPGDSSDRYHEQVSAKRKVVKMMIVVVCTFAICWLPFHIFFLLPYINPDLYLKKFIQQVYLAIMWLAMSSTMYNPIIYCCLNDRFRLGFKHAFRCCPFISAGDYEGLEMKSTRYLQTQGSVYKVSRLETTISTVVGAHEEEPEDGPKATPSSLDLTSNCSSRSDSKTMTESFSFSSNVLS", "test": "Calcium response caused by substance P in HEK 293 cells expressing NK1 receptor", "type": "cell-based", "details": "805 20 μM; substance P 0.1 or 10 nM", "experimental": "In FIGS. 12A and 12B, a suspension (1×10^6 cells/ml) of HEK 293 cells expressing the wild-type human NK1 receptor, and charged with indo-1 (3 μM) is stimulated by 0.1 nM (FIG. 12A) or 10 nM (FIG. 12B) of substance P(SP) in the presence (black circles) and in the absence (white circles) of 805 molecules (20 μM).\nThe cells are put into suspension at a rate of 1,000,000 cells/ml in Hepes buffer (op. cit.) and arranged in a spectrofluorimeter cuvette. The excitation wavelength is fixed at 338 nm and the emission is recorded at 400 nm. The responses traced are the signals recorded at 400 nm."}},
  "data": [
    {"smiles": "N#CCN(Cc1ccccc1)Cc1ccc2ccccc2c1", "note": "[compound 805, [benzyl(2-naphthylmethyl)amino]acetonitrile]", "values": [
      {"measurement": "Ca Rep.: ability to evoke a calcium response on cells not expressing the EGFP-NK2R receptor", "setting": "[1]; Table 1", "result": "ns"},
      {"measurement": "Ca Rep.", "setting": "[1]; Table 2", "result": "ns"},
      {"measurement": "effect on the calcium response caused by NKA 4-10 TR7", "setting": "receptor EGFP-NK2R [2]", "result": "increases the amplitude of the response"},
      {"measurement": "λ1/λ2 amplitudes (rapid/slow) of dissociation of NKA-Bo", "setting": "receptor EGFP-NK2R [3]; 1 μM 805", "result": "35/65"},
      {"measurement": "λ1/λ2 amplitudes (rapid/slow) of dissociation of NKA-Bo", "setting": "receptor EGFP-NK2R [3]; 50 μM 805", "result": "80/20"},
      {"measurement": "% al (max): maximum value observed for the increase in amplitude of the rapid dissociation rate", "setting": "receptor EGFP-NK2R [3]; Table 1, ns = not significant", "result": 80, "unit": "%"},
      {"measurement": "% al (at 10 μM)", "setting": "receptor EGFP-NK2R [3]; compound 10 μM, T = 22 ± 1 is amplitude of rapid dissociation in the absence of effector", "result": "29 (10 μM) %"},
      {"measurement": "EC50", "setting": "receptor EGFP-NK2R [3]; read-out: EC50 (μM): concentration of compound causing a 50% increase (relative to the maximum value) in the percentage of the amplitude of the rapid dissociation rate, Table 1, dissociation of NKA-Bo from EGFP-NK2R, ns = not significant", "result": "3 to 8", "unit": "µM"},
      {"measurement": "inhibition at 50 µM", "setting": "receptor EGFP-NK2R [4]", "result": 9, "unit": "%"},
      {"measurement": "effect on the calcium response caused by substance P", "setting": "[5]", "result": "increases the amplitude of the response"}
    ]}
  ]
}
